The results in this text go back to paper PMC8333425, “Discovery of a dual Ras and ARF6 inhibitor from a GPCR endocytosis screen” (Nature Communications, 2021).

Values joined by “and” are separate entries in the source; they are usually repeats but may differ in a detail not shown here. Equal entries are not always repeated.

Holding throughout (assay type): cell-based
One assay deals with T1, ARF1 (Homo sapiens, UniProt P84077).
T1 construct: expressed in transfected cells; host or cells: HEK293SL
Kind of assay: GST-GGA3-PBD pull-down of AT1R-mediated HA-ARF1 activation. The conditions noted are these: for ARF1-GTP/ARF1: GST-GGA3-PBD, listed as Comp 21. On the procedure: Activation of ARF1, ARF6, Ras, and Rho were assessed by using GST pull-down assays. HEK293SL cells were transiently transfected with 3 µg AT1R-flag only (Ras and Rho) or along with 500 ng HA-ARF6 (ARF6) or HA-ARF1 (ARF1). Forty-eight hours later, the HEK293 or MDA-MB-231 cells were serum-starved for 4 h with DMEM containing 20 mM HEPES then pretreated with DMSO or Rasarfin (50 µM) for 30 min. Cells were then stimulated with 1 µM AngII or 100 ng/ml EGF for 0 and 2 min. Cells were then washed once with ice-cold PBS and lysed for 30 min at 4 °C in 300 µl of lysis buffer (pH 7.5, 50 mM Tris-HCl, 140 mM NaCl, 5 mM MgCl2, 10% glycerol (v/v), 1% Nonidet P-40 (v/v), 1 mM dithiothreitol) supplemented with protease inhibitors (1 mM phenylmethyl-sulfonyl fluoride (PMSF), 10 µg/ml leupeptin, 5 µg/ml aprotinin, 1 µg/ml pepstatin A) and phosphatase inhibitors (20 mM NaF, 0.025 mM pervanadate). The samples were cleared by centrifugation and 30 µl (cell lysates) was kept for assessing total protein contents. The remaining was transferred to fresh tubes with 20 µg of either GST, GST-GGA3-PBD, GST-Raf1-RBD or GST-Rhotekin-RBD coupled to glutathione resin and rotated for 1–2 h at 4 °C. Beads were washed twice with lysis buffer and proteins were eluted in 25 μl 2x laemmli buffer by heating at 65 °C for 15 min. Proteins were resolved on 14% SDS-PAGE, transferred to nitrocellulose membranes, and immunoblotted for HA, Ras, RhoA, H-Ras, or ARF6. ImageLab 5.2 software was used to quantify the digital blots as fold of the amount of pulled down protein over total protein. Uncropped coomassie gels and immunoblots are provided in the Source Data file.

The target of assay [1] is T2, K-Ras Y32A, Y40A, Y32A/Y40A (Homo sapiens, UniProt P01116, Y32A/Y40A).
T2 construct: expressed in transfected cells; host or cells: HEK293SL
Kind of assay: Ras BRET sensor in cells overexpressing K-Ras mutants (Y32A, Y40A, Y32A/Y40A) and AT1R. The note with it: Rasarfin 50 μM, K-Ras Y32A/Y40A, Bonferroni's multiple comparisons test. An excerpt: (§1) Because Tyr32 and Tyr40, located on the switch I domain of Ras, are critical for stabilizing Rasarfin binding through interactions with both the chlorine and isopropyl moiety (Fig. 7a, c), we reasoned that substituting them for Ala residues would negatively impact Rasarfin’s inhibitory action on Ras. […] Because we wanted to assess the inhibitory action of Rasarfin over different Ras subtypes, we mutated the two tyrosine residues to an alanine in K-Ras (Y32A, Y40A, and Y32A/Y40A mutants) within the same Rasarfin binding site found in H-Ras (Lys^5-Thr^74). This domain and residues are perfectly conserved among the Ras family members[44],[45]. WT K-Ras and K-Ras mutants were overexpressed along with AT1R in cells and AngII-mediated activation of Ras was assessed using the Ras BRET sensor (Supplementary Fig. 11a).
(§2) HEK293SL cells were seeded at a density of 7.5 × 10^5 cells per 100-mm dish and 24 h later, transiently transfected as such. For receptor internalization experiments, cells were transfected with 0.12 μg AT1R-RlucII, B2R-RlucII, or β2AR-RlucII and 0.48 μg of either rGFP-CAAX (to assess removal from the PM) or rGFP-FYVE (to assess accumulation in the endosomes). For β-arrestin recruitment assays, cells were transfected with 0.48 μg of receptor-YFP along with 0.12 μg of β-arrestin-RlucII. For β-arrestin/AP-2 binding experiments, cells were transfected with 1 μg Flag-AT1R, 1 μg β2-Adaptin-YFP, and 0.12 μg β-arrestin2-RlucII. For G protein activation, cells were transfected with 3 μg of sp-Flag-AT1R along with either 4.5 μg of the Gαq-polycistronic BRET sensor or 0.24 μg of the Gαi3-RlucII and 0.6 μg of GFP10-Gγ2 and Gβ1 sensors or 0.12 μg PKN-RBD-RlucII and 0.48 μg of rGFP-CAAX. For PKC activation, cells were transfected with 3 μg of sp-Flag-AT1R and 0.18 μg of the PKC sensor. For GTPase activation experiments, cells were transfected with 1 μg Flag-AT1R, 0.48 μg of rGFP-CAAX, and either 0.12 μg of GGA3-PBD-RlucII, PAK-CRIB-RlucII or Raf-RBD-RlucII. For biosensor validation experiments, cells were additionally transfected with 500 ng Flag-K-Ras-WT, Flag-K-Ras-G12V, Flag-K-Ras-SOS-CAAX, HA-ARF6-WT, HA-ARF6-T27N, Myc-Rac1-WT, Myc-Rac1-Q61L or Myc-Rac1-T17N. For PI3K/Akt activation experiments, cells were transfected with 0.48 μg of rGFP-CAAX and 0.12 μg of Akt (PH)-RlucII. After 18 h of transfection, the media was replaced and cells were divided for subsequent experiments. Cells were detached and seeded onto poly-L-ornithine-coated 96-well flat white bottom plates (BrandTech Scientific) at a density of 2.5 × 10^4 cells per well in media. The next day, cells were washed once with Tyrode’s buffer (140 mM NaCl, 2.7 mM KCl, 1 mM CaCl2, 12 mM NaHCO3, 5.6 mM D-glucose, 0.5 mM MgCl2, 0.37 mM NaH2PO4, 25 mM HEPES, pH 7.4) and left in Tyrode’s buffer. For kinetics of β-arrestin recruitment or β-arrestin binding to receptor and AP-2 experiments, cells were serum starved for 30 min, pretreated with 21 (50 µM) or Barbadin (100 µM) for 30 min, stimulated with 100 nM AngII or 1 µM BK and BRET signals were monitored at indicated times using a Victor X Light plate reader (PerkinElmer). Coelenterazine H (final concentration of 5 µM) was added 3–5 min prior to BRET measurements. Filter set was 460/80 nm and 535/30 nm for detecting the RlucII Renilla luciferase (donor) and YFP (acceptor) light emissions, respectively. The BRET ratio was determined by calculating the ratio of the light emitted by YFP over the light emitted by the RlucII. For G protein activation, cells were serum starved, pretreated with compounds for 30 min, stimulated with 100 nM AngII for 2 min (Gαq, Gαi3, and Rho sensors) or 5 min (PKC sensor). For the kinetics of GTPase and PI3K/Akt activation, cells were serum starved, pretreated with 21 (50 µM) or Wortmannin (200 nM) for 30 min, stimulated with ligand (100 nM AngII or 100 ng/ml EGF) and BRET signals were monitored at indicated times. […]
(BRET reads energy transfer from a luciferase to a nearby fluorophore.)

The target of assay [2] is T3, K-Ras Y32A, Y40A, Y32A/Y40A (Homo sapiens, UniProt P01116, Y40A).
T3 construct: expressed in transfected cells; host or cells: HEK293SL
The description is as above. The conditions noted are these: Rasarfin 50 μM, K-Ras Y40A.
Excerpt: as §1, §2

T1 sequence (P84077 whole entry): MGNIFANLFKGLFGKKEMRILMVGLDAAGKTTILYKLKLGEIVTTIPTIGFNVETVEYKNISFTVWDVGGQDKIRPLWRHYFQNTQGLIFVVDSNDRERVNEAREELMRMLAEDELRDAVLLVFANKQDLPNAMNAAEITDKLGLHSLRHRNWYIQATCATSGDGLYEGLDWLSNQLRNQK

Turning to `CC(C)C(=O)N1CCN(c2ccc(NC(=O)c3cc4ccccc4o3)cc2Cl)CC1` [Compound 21], at ARF1 (50 μM), the “effect on AT1R-dependent ARF1 activation” value is “no effect”. The ARF1-GTP/ARF1 on ARF1 (AngII) is 0.143 and 0.2667 and 0.2223; at ARF1 (Ctrl), 0.07407 and 0.04303 and 0.06878. Besides, the “AngII-promoted BRET, Mean Diff. DMSO - Rasarfin” value in assay [1] is 0.004167; in assay [2] (Bonferroni's multiple comparisons test) it was 0.011. Also, the “AngII-promoted BRET” value in assay [2] was 0.072 and 0.05667 and 0.08167 and 0.04433.
